Laboratory results from patent US20230085307A1, “PYRIDAZINONE COMPOUND AND HERBICIDE” (NISSAN CHEMICAL CORPORATION, priority 2019, published 2023).

Legend:
[1] = tested on: rice flat sedge; assay: Test Example 3: herbicidal effect by foliage application, Wagner pot (Table 18, symbol E); format: in vivo, rice flat sedge (Cyperus iria); settings: 320 g/ha
Outline: (§1)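 Plants were sown in alluvial soil held under 0.1–0.5 cm standing water and grown 14 days in a greenhouse at 25–30 °C. An emulsifiable formulation, water-diluted to the set dose, was then sprayed onto the foliage, and effects were scored three weeks later using previously defined criteria.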

[2] = tested on: southern crabgrass; assay: Test Example 5: herbicidal effect by foliage application, plastic box (Table 20, symbol F); format: in vivo, southern crabgrass (Digitaria ciliaris); settings: amount of applied herbicide 320 g/ha; foliage application after 14-day growth; evaluated three weeks after application
Outline: (§2)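 Foliar spray test: emulsion formulation diluted in water to a set application rate, sprayed onto 14-day-old plants raised in diluvial soil at 25° C to 30° C under glass. Both herbicidal effect and crop effect rated visually three weeks later.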

[3] = tested on: barnyard grass; assay: Test Example 5: herbicidal effect by foliage application, plastic box (Table 20, symbol H); format: in vivo, barnyard grass (Echinochloa crus-galli); settings: amount of applied herbicide 320 g/ha; foliage application after 14-day growth; evaluated three weeks after application
Outline: as §2

[4] = tested on: blackgrass; assay: Test Example 5: herbicidal effect by foliage application, plastic box (Table 20, symbol J); format: in vivo, blackgrass (Alopecurus myosuroides); settings: amount of applied herbicide 320 g/ha; foliage application after 14-day growth; evaluated three weeks after application
Outline: as §2

[5] = tested on: windgrass; assay: Test Example 5: herbicidal effect by foliage application, plastic box (Table 20, symbol L); format: in vivo, windgrass (Apera spica-venti); settings: amount of applied herbicide 320 g/ha; foliage application after 14-day growth; evaluated three weeks after application
Outline: as §2

[6] = tested on: velvetleaf; assay: Test Example 5: herbicidal effect by foliage application, plastic box (Table 20, symbol M); format: in vivo, velvetleaf (Abutilon theophrasti); settings: amount of applied herbicide 320 g/ha; foliage application after 14-day growth; evaluated three weeks after application
Outline: as §2

[7] = tested on: redroot pigweed; assay: Test Example 4: herbicidal effect by soil treatment (Table 19, symbol N); format: in vivo, redroot pigweed (Amaranthus retroflexus); settings: amount of applied herbicide 320 g/ha
Outline: (§3)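 Herbicidal effect was rated 3 weeks after treatment, using the scoring criteria of an earlier test. The compound, formulated as an emulsion and diluted in water to a set herbicide amount, had been sprayed uniformly on soil over freshly sown seeds. Growth took place in a greenhouse at 25° C. to 30° C.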

[8] = tested on: green foxtail; assay: Test Example 5: herbicidal effect by foliage application, plastic box (Table 20, symbol G); format: in vivo, green foxtail (Setaria viridis); settings: amount of applied herbicide 320 g/ha; foliage application after 14-day growth; evaluated three weeks after application
Outline: as §2

[9] = tested on: persian speedwell; assay: Test Example 5: herbicidal effect by foliage application, plastic box (Table 20, symbol R); format: in vivo, Persian speedwell (Veronica persica); settings: amount of applied herbicide 320 g/ha; foliage application after 14-day growth; evaluated three weeks after application
Outline: as §2

[10] = tested on: green foxtail; assay: Test Example 4: herbicidal effect by soil treatment (Table 19, symbol G); format: in vivo, green foxtail (Setaria viridis); settings: amount of applied herbicide 320 g/ha
Outline: as §3

[11] = tested on: chickweed; assay: Test Example 4: herbicidal effect by soil treatment (Table 19, symbol P); format: in vivo, common chickweed (Stellaria media); settings: amount of applied herbicide 320 g/ha
Outline: as §3

[12] = tested on: chickweed; assay: Test Example 5: herbicidal effect by foliage application, plastic box (Table 20, symbol P); format: in vivo, common chickweed (Stellaria media); settings: amount of applied herbicide 320 g/ha; foliage application after 14-day growth; evaluated three weeks after application
Outline: as §2

[13] = tested on: lambsquarters; assay: Test Example 4: herbicidal effect by soil treatment (Table 19, symbol O); format: in vivo, lambsquarters (Chenopodium album); settings: amount of applied herbicide 320 g/ha
Outline: as §3

[14] = tested on: barnyard grass; assay: Test Example 4: herbicidal effect by soil treatment (Table 19, symbol H); format: in vivo, barnyard grass (Echinochloa crus-galli); settings: amount of applied herbicide 320 g/ha
Outline: as §3

[15] = tested on: barnyard grass; assay: Test Example 3: herbicidal effect by foliage application, Wagner pot (Table 18, symbol H); format: in vivo, barnyard grass (Echinochloa crus-galli); settings: 320 g/ha
Outline: as §1

[16] = tested on: wild oat; assay: Test Example 4: herbicidal effect by soil treatment (Table 19, symbol I); format: in vivo, wild oat (Avena fatua); settings: amount of applied herbicide 320 g/ha
Outline: as §3

[17] = tested on: wild oat; assay: Test Example 5: herbicidal effect by foliage application, plastic box (Table 20, symbol I); format: in vivo, wild oat (Avena fatua); settings: amount of applied herbicide 320 g/ha; foliage application after 14-day growth; evaluated three weeks after application
Outline: as §2

[18] = tested on: blackgrass; assay: Test Example 4: herbicidal effect by soil treatment (Table 19, symbol J); format: in vivo, blackgrass (Alopecurus myosuroides); settings: amount of applied herbicide 320 g/ha
Outline: as §3

[19] = tested on: southern crabgrass; assay: Test Example 4: herbicidal effect by soil treatment (Table 19, symbol F); format: in vivo, southern crabgrass (Digitaria ciliaris); settings: amount of applied herbicide 320 g/ha
Outline: as §3

[20] = tested on: persian speedwell; assay: Test Example 4: herbicidal effect by soil treatment (Table 19, symbol R); format: in vivo, Persian speedwell (Veronica persica); settings: amount of applied herbicide 320 g/ha
Outline: as §3

[21] = tested on: Chinese sprangletop; assay: Test Example 3: herbicidal effect by foliage application, Wagner pot (Table 18, symbol D); format: in vivo, chinese sprangletop (Leptochloa chinensis); settings: 320 g/ha
Outline: as §1

[22] = tested on: Italian ryegrass; assay: Test Example 4: herbicidal effect by soil treatment (Table 19, symbol K); format: in vivo, Italian ryegrass (Lolium multiflorum); settings: amount of applied herbicide 320 g/ha
Outline: as §3

[23] = tested on: lambsquarters; assay: Test Example 5: herbicidal effect by foliage application, plastic box (Table 20, symbol O); format: in vivo, lambsquarters (Chenopodium album); settings: amount of applied herbicide 320 g/ha; foliage application after 14-day growth; evaluated three weeks after application
Outline: as §2

[24] = tested on: windgrass; assay: Test Example 4: herbicidal effect by soil treatment (Table 19, symbol L); format: in vivo, windgrass (Apera spica-venti); settings: amount of applied herbicide 320 g/ha
Outline: as §3

[25] = tested on: redroot pigweed; assay: Test Example 5: herbicidal effect by foliage application, plastic box (Table 20, symbol N); format: in vivo, redroot pigweed (Amaranthus retroflexus); settings: amount of applied herbicide 320 g/ha; foliage application after 14-day growth; evaluated three weeks after application
Outline: as §2

[26] = tested on: velvetleaf; assay: Test Example 4: herbicidal effect by soil treatment (Table 19, symbol M); format: in vivo, velvetleaf (Abutilon theophrasti); settings: amount of applied herbicide 320 g/ha
Outline: as §3

[27] = tested on: Italian ryegrass; assay: Test Example 5: herbicidal effect by foliage application, plastic box (Table 20, symbol K); format: in vivo, Italian ryegrass (Lolium multiflorum); settings: amount of applied herbicide 320 g/ha; foliage application after 14-day growth; evaluated three weeks after application
Outline: as §2

Question: How did the “herbicidal effect on rice flat sedge (E)” value [1] turn out when `CCCC(=O)Oc1c(C)nn(C)c(=O)c1-c1c(-c2ccccc2OC)sc2cc(Cl)c(Cl)cc12` [5-042] was run?
Answer: 4 (Herbicidal rate of 70% or more and less than 90%)

Question: And the “Herbicidal effect by foliage application, F: southern crabgrass” value [2]?
Answer: 0 (Herbicidal rate of 5% or less (almost no effect))

Question: And the “Herbicidal effect by foliage application, H: barnyard grass” value [3]?
Answer: 4 (Herbicidal rate of 70% or more and less than 90%)

Question: And the “Herbicidal effect by foliage application, J: blackgrass” value [4]?
Answer: 0 (Herbicidal rate of 5% or less (almost no effect))

Question: What about the “Herbicidal effect by foliage application, L: windgrass” value [5] of the same molecule?
Answer: 0 (Herbicidal rate of 5% or less (almost no effect))

Question: What about the “Herbicidal effect by foliage application, M: velvetleaf” value [6] of the same molecule?
Answer: 5 (Herbicidal rate of 90% or more (almost completely withered))

Question: And the “N: redroot pigweed, herbicidal effect grade” value [7]?
Answer: 3 (Herbicidal rate of 40% or more and less than 70%)

Question: What about the “Herbicidal effect by foliage application, G: green foxtail” value [8] of the same molecule?
Answer: 4 (Herbicidal rate of 70% or more and less than 90%)

Question: And the “Herbicidal effect by foliage application, R: persian speedwell” value [9]?
Answer: 4 (Herbicidal rate of 70% or more and less than 90%)

Question: And the “G: green foxtail, herbicidal effect grade” value [10]?
Answer: 0 (Herbicidal rate of 5% or less (almost no effect))

Question: What about the “P: chickweed, herbicidal effect grade” value [11] of the same molecule?
Answer: 3 (Herbicidal rate of 40% or more and less than 70%)

Question: And the “Herbicidal effect by foliage application, P: chickweed” value [12]?
Answer: 4 (Herbicidal rate of 70% or more and less than 90%)

Question: What about the “O: lambsquarters, herbicidal effect grade” value [13] of the same molecule?
Answer: 1 (Herbicidal rate of 5% or more and less than 20%)

Question: What about the “H: barnyard grass, herbicidal effect grade” value [14] of the same molecule?
Answer: 0 (Herbicidal rate of 5% or less (almost no effect))

Question: And the “herbicidal effect on barnyard grass (H)” value [15]?
Answer: 5 (Herbicidal rate of 90% or more (almost completely withered))

Question: And the “I: wild oat, herbicidal effect grade” value [16]?
Answer: 0 (Herbicidal rate of 5% or less (almost no effect))

Question: What about the “Herbicidal effect by foliage application, I: wild oat” value [17] of the same molecule?
Answer: 0 (Herbicidal rate of 5% or less (almost no effect))

Question: What about the “J: blackgrass, herbicidal effect grade” value [18] of the same molecule?
Answer: 0 (Herbicidal rate of 5% or less (almost no effect))

Question: What about the “F: southern crabgrass, herbicidal effect grade” value [19] of the same molecule?
Answer: 0 (Herbicidal rate of 5% or less (almost no effect))

Question: And the “R: persian speedwell, herbicidal effect grade” value [20]?
Answer: 0 (Herbicidal rate of 5% or less (almost no effect))

Question: What about the “herbicidal effect on Chinese sprangletop (D)” value [21] of the same molecule?
Answer: 2 (Herbicidal rate of 20% or more and less than 40%)

Question: And the “K: Italian ryegrass, herbicidal effect grade” value [22]?
Answer: 0 (Herbicidal rate of 5% or less (almost no effect))

Question: And the “Herbicidal effect by foliage application, O: lambsquarters” value [23]?
Answer: 5 (Herbicidal rate of 90% or more (almost completely withered))

Question: What about the “L: windgrass, herbicidal effect grade” value [24] of the same molecule?
Answer: 0 (Herbicidal rate of 5% or less (almost no effect))

Question: What about the “Herbicidal effect by foliage application, N: redroot pigweed” value [25] of the same molecule?
Answer: 4 (Herbicidal rate of 70% or more and less than 90%)

Question: And the “M: velvetleaf, herbicidal effect grade” value [26]?
Answer: 0 (Herbicidal rate of 5% or less (almost no effect))

Question: What about the “Herbicidal effect by foliage application, K: Italian ryegrass” value [27] of the same molecule?
Answer: 0 (Herbicidal rate of 5% or less (almost no effect))
